Several values for one entry are separate records, joined by “and”; a condition that tells them apart may be missing. Equal entries are not always repeated. Where two headings read alike, the source gives them in different places.
Experiments:
Type in all cases: biochemical
[1] = molecular target: T1, human CSNK1A1 (Homo sapiens (Human), UniProt P48729); assay: CSNK1A1 Assay 2 (ADP-Glo, 1 μM ATP); conditions: substrate biotin-Ahx-KRRRAL-pS-VASLPGL, read-out: CSNK1A1 Assay 2 IC50 [mol/l] (median)
T1 sequence (P48729 whole entry, the tested form may be a part): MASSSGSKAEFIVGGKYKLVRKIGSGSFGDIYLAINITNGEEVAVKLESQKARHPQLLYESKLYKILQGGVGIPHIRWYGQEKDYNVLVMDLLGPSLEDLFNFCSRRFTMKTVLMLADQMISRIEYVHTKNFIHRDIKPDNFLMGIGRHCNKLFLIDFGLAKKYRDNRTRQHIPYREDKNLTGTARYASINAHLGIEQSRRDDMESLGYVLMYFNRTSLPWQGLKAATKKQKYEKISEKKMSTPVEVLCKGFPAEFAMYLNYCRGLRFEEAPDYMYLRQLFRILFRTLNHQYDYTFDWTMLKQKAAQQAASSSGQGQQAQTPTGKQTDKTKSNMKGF
How it was run: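 Full-length human CSNK1A1 as an N-terminal GST fusion (baculovirus/insect cells) with biotinylated peptide substrate biotin-Ahx-KRRRAL-pS-VASLPGL and 1 μM ATP, in HEPES pH 7.5 buffer. Compounds were pre-incubated with enzyme (~0.0375 ng/μL) for 15 min at 22 °C. Generated ADP was read by ADP-Glo luminescence as the activity measure.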

[2] = molecular target: T1, human CSNK1A1; assay: CSNK1A1 High ATP Assay (ADP-Glo, 1 mM ATP); conditions: read-out: CSNK1A1 high ATP assay IC50 [mol/l] (median)
How it was run: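 Kinase activity taken as ADP generated, quantified by ADP-Glo luminescence after 1 h ATP depletion and 1 h detection at 22 °C. Enzyme is GST–full-length human CSNK1A1 (insect cell-expressed), pre-bound to compound for 15 min, with phosphopeptide substrate and 1 mM ATP.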

[3] = molecular target: human CSNK1D (Homo sapiens (Human), UniProt P48730); assay: CSNK1D Assay (ADP-Glo, 1 μM ATP); conditions: read-out: CSNK1D IC50 [mol/l] (median)
Chain of human CSNK1D (P48730 whole entry): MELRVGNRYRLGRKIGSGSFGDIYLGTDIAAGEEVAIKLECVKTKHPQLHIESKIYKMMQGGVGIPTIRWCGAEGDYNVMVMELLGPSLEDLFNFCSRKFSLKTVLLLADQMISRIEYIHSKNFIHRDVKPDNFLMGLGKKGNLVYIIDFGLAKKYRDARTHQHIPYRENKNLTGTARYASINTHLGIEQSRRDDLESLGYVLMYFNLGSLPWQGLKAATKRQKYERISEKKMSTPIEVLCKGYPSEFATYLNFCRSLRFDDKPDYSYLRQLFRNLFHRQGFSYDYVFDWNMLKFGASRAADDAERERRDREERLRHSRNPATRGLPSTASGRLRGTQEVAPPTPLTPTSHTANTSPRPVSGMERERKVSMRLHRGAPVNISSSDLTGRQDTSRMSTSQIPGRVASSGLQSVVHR
How it was run: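 Activity is read as ADP produced, by ADP-Glo luminescence after 1 h steps at 22 °C. The reaction uses 1 μM ATP, a biotinylated peptide and insect-cell-expressed GST–CSNK1D (about 0.5 ng/μL) in pH 7.5 HEPES buffer, with 15 min compound–enzyme preincubation.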

[4] = molecular target: wild-type Epidermal Growth Factor Receptor (EGFR) (Homo sapiens (Human), UniProt P00533); assay: WT-EGFR Kinase Assay (TR-FRET, 2 mM ATP)
Chain of wild-type Epidermal Growth Factor Receptor (EGFR) (P00533 669-1210): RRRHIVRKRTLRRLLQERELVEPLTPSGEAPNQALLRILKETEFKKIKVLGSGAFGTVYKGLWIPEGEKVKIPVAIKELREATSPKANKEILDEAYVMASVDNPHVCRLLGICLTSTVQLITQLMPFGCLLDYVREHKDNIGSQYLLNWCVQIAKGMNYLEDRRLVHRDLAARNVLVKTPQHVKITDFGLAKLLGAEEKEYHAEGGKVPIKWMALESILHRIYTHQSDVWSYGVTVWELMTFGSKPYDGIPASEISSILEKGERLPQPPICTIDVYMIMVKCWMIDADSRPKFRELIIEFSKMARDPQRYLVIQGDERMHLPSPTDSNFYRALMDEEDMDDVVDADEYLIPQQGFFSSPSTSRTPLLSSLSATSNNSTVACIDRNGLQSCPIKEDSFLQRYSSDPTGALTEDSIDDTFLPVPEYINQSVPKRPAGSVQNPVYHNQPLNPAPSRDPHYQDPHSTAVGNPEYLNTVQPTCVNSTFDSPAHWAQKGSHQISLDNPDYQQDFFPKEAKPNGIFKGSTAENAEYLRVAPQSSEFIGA

[5] = EGFR Wildtyp- 2 mM ATP IC50 [mol/l] (median)
[6] = read-out: EGFR Wildtyp- 2 mM ATP IC50 [mol/l] (median)

Structure (SMILES)	IC50 [1] [nM]	IC50 [2]	IC50 [3] [nM]	IC50 [4, 5] [nM]	IC50 [4, 6] [nM]
CC1Cc2[nH]c(-c3ccnc(NC(=O)Cc4ccc(F)cc4)c3)c(Nc3ccccc3)c2C(=O)N1C (single isomer, unassigned; (-)) [Example 90, (−)-N-{4-[3-anilino-5,6-dimethyl-4-oxo-4,5,6,7-tetrahydro-1H-pyrrolo[3,2-c]pyridin-2-yl]pyridin-2-yl}-2-(4-fluorophenyl)acetamide]	1.43	62.4 nM	3.79	561	
CC1(C)Cc2[nH]c(-c3ccnc(NC(=O)C(CC(F)F)c4ccc(F)cc4)c3)c(Nc3ccccc3)c2C(=O)N1 (single isomer, unassigned) [Example 50, N-[4-(3-anilino-6,6-dimethyl-4-oxo-4,5,6,7-tetrahydro-1H-pyrrolo[3,2-c]pyridin-2-yl)pyridin-2-yl]-4,4-difluoro-2-(4-fluorophenyl)butanamide]	51	2460 nM	68.2		> 20000
COCCNC(=O)c1ccc(CC(=O)Nc2cc(-c3[nH]c4c(c3Nc3ccccc3)C(=O)N(C)CC4)ccn2)cc1 [Example 152, 4-(2-{[4-(3-anilino-5-methyl-4-oxo-4,5,6,7-tetrahydro-1H-pyrrolo[3,2-c]pyridin-2-yl)pyridin-2-yl]amino}-2-oxoethyl)-N-(2-methoxyethyl)benzamide]	2.45	37 nM	7.96		1660
CC1(C)Cc2[nH]c(-c3ccnc(NC(=O)C(CC(F)F)c4ccc(S(C)(=O)=O)cc4)c3)c(Nc3ccccc3)c2C(=O)N1 (racemic) [Example 118, N-[4-(3-anilino-6,6-dimethyl-4-oxo-4,5,6,7-tetrahydro-1H-pyrrolo[3,2-c]pyridin-2-yl)pyridin-2-yl]-4,4-difluoro-2-[4-(methanesulfonyl)phenyl]butanamide (Racemate)]	5.16	107 nM	12.9	7260	
CC1(C)Cc2[nH]c(-c3ccnc(NC(=O)Cc4ccncc4)c3)c(Nc3ccccc3)c2C(=O)N1 [Example 51, N-[4-(3-anilino-6,6-dimethyl-4-oxo-4,5,6,7-tetrahydro-1H-pyrrolo[3,2-c]pyridin-2-yl)pyridin-2-yl]-2-(pyridin-4-yl)acetamide]	4.87	25.8 nM	6.67		563
CC(C(=O)Nc1cc(-c2[nH]c3c(c2Nc2ccccc2)C(=O)N(C)CC3)ccn1)c1ccncc1 (racemic) [Example 72, N-[4-(3-anilino-5-methyl-4-oxo-4,5,6,7-tetrahydro-1H-pyrrolo[3,2-c]pyridin-2-yl)pyridin-2-yl]-2-(pyridin-4-yl)propanamide]	3.97	66.4 nM	6.09	7590	
Cc1ccccc1Nc1c(-c2ccnc(NC(=O)C(C)c3ccc(F)cc3)c2)[nH]c2c1C(=O)NC(C)(C)C2 (single isomer, unassigned; enantiomer 1) [Example 133, (−)-N-{4-[6,6-dimethyl-3-(2-methylanilino)-4-oxo-4,5,6,7-tetrahydro-1H-pyrrolo[3,2-c]pyridin-2-yl]pyridin-2-yl}-2-(4-fluorophenyl)propanamide (Enantiomer 1)]	197	> 5710 nM	280	405	
CC(C(=O)Nc1cc(-c2[nH]c3c(c2Nc2ccccc2)C(=O)NC(C)(C)C3)ccn1)c1ccc(F)cc1 (single isomer, unassigned) [Example 39, N-[4-(3-anilino-6,6-dimethyl-4-oxo-4,5,6,7-tetrahydro-1H-pyrrolo[3,2-c]pyridin-2-yl)pyridin-2-yl]-2-(4-fluorophenyl)propanamide]	179	2.84 µM and 2.9 µM and > 20 µM (2×)	214	> 20000	
CCN1CCc2[nH]c(-c3ccnc(NC(=O)Cc4ccc(F)cc4)c3)c(Nc3ccccc3)c2C1=O [Example 28, N-[4-(3-anilino-5-ethyl-4-oxo-4,5,6,7-tetrahydro-1H-pyrrolo[3,2-c]pyridin-2-yl)pyridin-2-yl]-2-(4-fluorophenyl)acetamide]	11.4	1980 nM	71.2		> 20000
CC1(C)Cc2[nH]c(-c3ccnc(NC(=O)C(CC(F)F)c4ccc(F)cc4)c3)c(Nc3ccccc3)c2C(=O)N1 (single isomer, unassigned; (+)) [Example 49, (+)-N-[4-(3-anilino-6,6-dimethyl-4-oxo-4,5,6,7-tetrahydro-1H-pyrrolo[3,2-c]pyridin-2-yl)pyridin-2-yl]-4,4-difluoro-2-(4-fluorophenyl)butanamide]	4.57	19.6 nM	7.3	> 20000	
Cc1ccccc1Nc1c(-c2ccnc(NC(=O)C(CC(F)F)c3ccc(F)cc3)c2)[nH]c2c1C(=O)NC(C)(C)C2 (single isomer, unassigned; enantiomer 1) [Example 136, N-{4-[6,6-dimethyl-3-(2-methylanilino)-4-oxo-4,5,6,7-tetrahydro-1H-pyrrolo[3,2-c]pyridin-2-yl]pyridin-2-yl}-4,4-difluoro-2-(4-fluorophenyl)butanamide (Enantiomer 1)]	13.7	45.6 nM	45.3	> 20000	
CC1Cc2[nH]c(-c3ccnc(NC(=O)Cc4ccc(F)cc4)c3)c(Nc3ccccc3F)c2C(=O)N1C (racemic) [Example 100, N-{4-[3-(2-fluoroanilino)-5,6-dimethyl-4-oxo-4,5,6,7-tetrahydro-1H-pyrrolo[3,2-c]pyridin-2-yl]pyridin-2-yl}-2-(4-fluorophenyl)acetamide]	3.97	254 nM	15.6	3830	
CC(C(=O)Nc1cc(-c2[nH]c3c(c2Nc2ccccc2)C(=O)N(C)CC3)ccn1)c1ccc(Cl)cc1 (single isomer, unassigned; (+)) [Example 81, (+)-N-[4-(3-anilino-5-methyl-4-oxo-4,5,6,7-tetrahydro-1H-pyrrolo[3,2-c]pyridin-2-yl)pyridin-2-yl]-2-(4-chlorophenyl)propanamide]	4.33	71.4 nM	8.47		> 20000
CC(C(=O)Nc1cc(-c2[nH]c3c(c2Nc2ccccc2)C(=O)N(C)C2(CCC2)C3)ccn1)c1ccc(F)cc1 (single isomer, unassigned; enantiomer 2) [Example 159, (+)-N-[4-(3′-anilino-5′-methyl-4′-oxo-1′,4′,5′,7′-tetrahydrospiro[cyclobutane-1,6′-pyrrolo[3,2-c]pyridin]-2′-yl)pyridin-2-yl]-2-(4-fluorophenyl)propanamide (Enantiomer 2)]	90.3	217 nM	90.7		> 20000
CC(C(=O)Nc1cc(-c2[nH]c3c(c2Nc2ccccc2Cl)C(=O)NCC3)ccn1)c1ccc(F)cc1 (stereo not shown) [Example 14, N-{4-[3-(2-chloroanilino)-4-oxo-4,5,6,7-tetrahydro-1H-pyrrolo[3,2-c]pyridin-2-yl]pyridin-2-yl}-2-(4-fluorophenyl)propanamide]	4.96	73.9 nM	14		> 20000
CCC(C(=O)Nc1cc(-c2[nH]c3c(c2Nc2ccccc2)C(=O)N(C)CC3)ccn1)c1ccc(F)cc1 (single isomer, unassigned; (+)) [Example 77, (+)-N-[4-(3-anilino-5-methyl-4-oxo-4,5,6,7-tetrahydro-1H-pyrrolo[3,2-c]pyridin-2-yl)pyridin-2-yl]-2-(4-fluorophenyl)butanamide]	2.12	86.7 nM	4.43		> 20000
CC(C(=O)Nc1cc(-c2[nH]c3c(c2Nc2ccccc2)C(=O)N(C)C(C)C3)ccn1)c1ccc(F)cc1 (single isomer, unassigned; (+)) [Example 92, (+)-N-{4-[3-anilino-5,6-dimethyl-4-oxo-4,5,6,7-tetrahydro-1H-pyrrolo[3,2-c]pyridin-2-yl]pyridin-2-yl}-2-(4-fluorophenyl)propanamide]	4.66	230 nM	10.7	> 20000	
CC1Cc2[nH]c(-c3ccnc(NC(=O)Cc4ccncc4)c3)c(Nc3ccccc3)c2C(=O)N1C (racemic) [Example 97, N-{4-[3-anilino-5,6-dimethyl-4-oxo-4,5,6,7-tetrahydro-1H-pyrrolo[3,2-c]pyridin-2-yl]pyridin-2-yl}-2-(pyridin-4-yl)acetamide]	4.4	47 nM	5.73	529	
Cc1ccccc1Nc1c(-c2ccnc(NC(=O)C(CC(F)F)c3ccc(F)cc3)c2)[nH]c2c1C(=O)NC(C)(C)C2 (single isomer, unassigned; enantiomer 2) [Example 137, N-{4-[6,6-dimethyl-3-(2-methylanilino)-4-oxo-4,5,6,7-tetrahydro-1H-pyrrolo[3,2-c]pyridin-2-yl]pyridin-2-yl}-4,4-difluoro-2-(4-fluorophenyl)butanamide (Enantiomer 2)]	42.2	451 nM	82.7		> 20000

Source: US12227501B2, “3-amino-2-[2-(acylamino)pyridin-4-yl]-1,5,6,7-tetrahydro-4h-pyrrolo[3,2-c]pyridin-4-one as CSNK1 inhibitors” (Bayer Aktiengesellschaft, priority 2019, dated 2025)
